We go through six compounds from patent US20230406859A1, “METHOTREXATE ANALOGS AND METHODS OF USE” (The United States of America, as represented by the …, priority 2020, published 2023).

Each structure is given as a SMILES string. Where two headings read alike, the source gives them in different places.

The subject of one data set is HBL1 cell line. The data set can be described thus: CellTiter-Glo cell viability (cytotox), HBL1 cell line, 72 hours. It counts as cell-based. On the procedure:
(§1) CellTiter-Glo viability assays: Five μL of cells (2500 cells) from the 12-well plate culture were plated into white 1536-well plates (Greiner, Monroe, NC, 789173-F) in 6 replicates. CellTiter-Glo Luminescent Cell Viability Assay (CTG) (Promega, G7572), 2.5 μL/well reagent was added with a BioRAPTR FRD (Beckman Coulter, Sykesville, MD), plates were incubated in the dark at ambient temperature for 10 min, and luminescence measured with a ViewLux 1430 Ultra HTS (Perkin Elmer, Waltham, MA).
A general note: Cellular ATP, detected with luciferase, serves as a proxy for viable cell number.

The target in data set [1] is T1, human DHFR-HiBiT fusion protein (Homo sapiens, UniProt P00374).
T1 construct: expressed in transfected cells; host or cells: HBL1 cells retrovirally infected with pBMN-Ires-Lyt-2 carrying DHFR-HiBiT
T1 sequence (P00374 with tags, fused parts or gaps): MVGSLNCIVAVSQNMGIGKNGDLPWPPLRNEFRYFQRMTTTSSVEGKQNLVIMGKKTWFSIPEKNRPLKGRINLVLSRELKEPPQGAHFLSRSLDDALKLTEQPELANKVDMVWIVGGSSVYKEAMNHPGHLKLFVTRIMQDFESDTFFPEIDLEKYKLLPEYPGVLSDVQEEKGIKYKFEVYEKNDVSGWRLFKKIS
The data set can be described thus: DHFR-HiBiT assay (high-throughput DHFR abundance) in HBL1 cells. The class given is cell-based. Conditions: for Dmax: % change in untreated cellular DHFR level (control), negative = degradation, positive = stabilization, HBL1, 24 h, read-out: efficacy (%). The text has this:
The human DHFR-HiBiT construct was synthetized (Bio Basic) and cloned into the retroviral vector pBMN-Ires-Lyt-2 (provided by G. Nolan, Stanford University, Stanford, CA) which expresses the coding region of mouse CD8a (Lyt-2) using the restriction sites BamHI/XhoI. All constructs were sequenced to validate authenticity. Infected cells were positively selected based on murine CD8a expression using magnetic beads (Miltenyi Biotech).
Cell culture: Human embryonic kidney HEK293T cells were maintained in DMEM (Gibco) supplemented with 10% fetal bovine serum (Hyclone), 2 mmol/L 1-glutamine, HEPES (Gibco) and 100 U/mL penicillin/streptomycin (Invitrogen). The lymphoma cell line HBL1 were maintained in RPMI (Life Technology) supplemented with 5% fetal bovine serum (Hyclone), 2 mmol/L L-glutamine, HEPES (Gibco) and 100 U/mL penicillin/streptomycin (Invitrogen).
Transfection and retroviral infections: Transfections were performed using Lipofectamine 2000 (Invitrogen) according to the manufacturer's protocol. For retroviral infections, viruses were produced in HEK293T cells and used to infect HBL1 cell line. […] Supernatants containing the retrovirus were collected and filtered at 48- and 72-hours post-transfection. HBL1 cells were centrifuged and then resuspended with the retroviral supernatant with 8 μg/ml of polybrene. The cells were spin-infected twice on consecutive days at 2,500 rpm, at RT, for 90 minutes.
Lytic HiBiT Detection: Cells were plated in solid white 1536-well tissue culture plates (Greiner), at the concentration of 2000 cells/well. After treatment, an equal volume of Nano-Glo HiBiT Lytic Reagent (Promega) containing the substrate furimazine and Large BiT (LgBiT) was added to the cells according to the manufacturer's protocol. Cells were incubated for 10 min at room temperature, and luminescence was measured using a Perkin Elmer ViewLux microplate imager with 30 seconds of exposure time.

Data set [2] concerns MTX-resistant HBL1 cell line. It counts as cell-based. How it is done: as §1
In the next data set the test system is fibroblasts. Put plainly: CellTiter-Glo ATP levels in fibroblasts. It counts as cell-based. On the procedure:
(§2) Cell Culture Methods: Cells (HBL1, immortalized fibroblasts from a healthy donor, or 293T) were seeded at the numbers indicated in a 12-well plate in 500 ul. […] Human embryonic kidney HEK293T cells and immortalized fibroblasts were maintained in DMEM (Gibco) supplemented with 10% fetal bovine serum (Hyclone), 2 mmol/L L-glutamine, Hepes (Gibco), and 100 U/mL penicillin/streptomycin (Invitrogen). The lymphoma cell line HBL1 was maintained in RPMI (Life Technology) supplemented with 5% fetal bovine serum (Hyclone), 2 mmol/L 1-glutamine, Hepes (Gibco), and 100 U/mL penicillin/streptomycin (Invitrogen). Cells were cultured in incubators maintained at 37° C., with 5% CO2 and 85% humidity.
(§3) Cell-Titer-Glo viability assays: Five μL of cells (2500 cells) from the 12-well plate culture were plated into white 1536-well plates (Greiner, Monroe, NC, 789173-F) in 6 replicates. CellTiter-Glo Luminescent Cell Viability Assay (CTG) (Promega, G7572), 2.5 μL/well reagent was added with a BioRAPTR FRD (Beckman Coulter, Sykesville, MD), plates were incubated in the dark at ambient temperature for 10 min, and luminescence measured with a ViewLux 1430 Ultra HTS (Perkin Elmer, Waltham, MA).

A further data set has as its system HBL1 cells. The data set can be described thus: CellTiter-Glo assay of cellular ATP levels in HBL1 cells (16 h). The class given is cell-based. How it is done: as §2, §3
The test system of a further data set is 293T cells. Put plainly: CellTiter-Glo ATP levels in 293T cells. The class given is cell-based, human. On the procedure: as §2, §3
For data set [3], the target named is T2, thymidylate synthase (TS) (Homo sapiens, UniProt P04818). The data set can be described thus: Western blot of thymidylate synthase levels in 293T cells. It counts as cell-based. Conditions: 16 h. On the technique in general: Immunoblotting shows a protein as a band on a membrane.
T2 sequence (P04818 2-313 limits assumed): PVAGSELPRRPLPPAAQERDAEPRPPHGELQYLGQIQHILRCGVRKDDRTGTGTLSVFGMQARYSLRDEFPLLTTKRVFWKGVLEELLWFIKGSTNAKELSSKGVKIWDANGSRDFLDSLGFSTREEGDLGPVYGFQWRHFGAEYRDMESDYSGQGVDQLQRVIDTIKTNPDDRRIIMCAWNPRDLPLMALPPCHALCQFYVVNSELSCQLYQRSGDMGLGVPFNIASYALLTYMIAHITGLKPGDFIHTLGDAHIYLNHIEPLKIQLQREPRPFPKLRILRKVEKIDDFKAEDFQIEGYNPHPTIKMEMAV
The target in data set [4] is T2, thymidylate synthase (TS). Put plainly: Western blot of thymidylate synthase levels in fibroblasts. The conditions noted are these: 16 h. The class given is cell-based.
Data set [5] has as its target T3, DHFR (Homo sapiens, UniProt P00374).
T3 construct: Western blot detection of DHFR levels after treatment of HBL1 cells for 16 h; endogenous in cells; host or cells: HBL1 lymphoma cell line
T3 sequence (P00374 1-187): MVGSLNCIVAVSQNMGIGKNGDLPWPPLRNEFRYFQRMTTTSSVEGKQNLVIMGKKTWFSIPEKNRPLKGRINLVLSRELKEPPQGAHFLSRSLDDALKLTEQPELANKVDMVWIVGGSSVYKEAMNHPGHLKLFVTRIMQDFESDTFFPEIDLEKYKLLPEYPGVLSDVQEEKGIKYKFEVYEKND
The class given is cell-based. The conditions noted are these: HBL1 cells, Western blot. The text has this:
Human embryonic kidney HEK293T cells and immortalized fibroblasts were maintained in DMEM (Gibco) supplemented with 10% fetal bovine serum (Hyclone), 2 mmol/L L-glutamine, Hepes (Gibco), and 100 U/mL penicillin/streptomycin (Invitrogen). The lymphoma cell line HBL1 was maintained in RPMI (Life Technology) supplemented with 5% fetal bovine serum (Hyclone), 2 mmol/L 1-glutamine, Hepes (Gibco), and 100 U/mL penicillin/streptomycin (Invitrogen).
Western blotting: Cells at confluence from 12-well plate treatments were washed with PBS and lysed in 75 μL/well NP40 lysis buffer (Cell Signaling), subjected to agitation and centrifugation. Approximately 100 μg of total protein was used per analysis. […] Blots were first incubated with 1:2000 dilution of anti-human DHFR antibody (Abcam, ab124814, host rabbit) for 16 h at 4° C. with shaking, washed 3× with TBS-T and incubated with 1:2000 dilution of anti-human β-actin primary antibody (Cell Signaling, host mouse) for 1 h at ambient temperature with shaking. Blots were then washed 3× with TBS-T and incubated with 1:5000 HRP secondary antibody (Novex, anti-Rabbit IgG raised in Goat, 1 mg/ml) for 1 h at ambient temperature, then washed with 3×TBS-T and developed with Pierce ECL Dura reagent for 5 min. Immunoreactive bands were imaged on a ChemiDoc Imaging System (Bio-Rad) with 20 s chemiluminescence exposure. The molecular weight marker ladder was imaged with colorimetric auto-exposure, and both images merged.

Data set [6] addresses T2, thymidylate synthase (TS). The data set can be described thus: Western blot of thymidylate synthase levels in HBL1 cells. The class given is cell-based. On the set-up: Western blot detection of folate-cofactor dependent enzyme levels after treatment of HBL1 cells; endogenous in cells; host or cells: HBL1 lymphoma cell line. Conditions: 1 μM, 16 h.
Data set [7] deals with T3, DHFR. Put plainly: Western blot detection of DHFR levels in fibroblasts. The class given is cell-based. Conditions: 16 h at 1 μM. On the procedure: as §2
Western blotting: Cells at confluence from 12-well plate treatments were washed with PBS and lysed in 75 μL/well NP40 lysis buffer (Cell Signaling), subjected to agitation and centrifugation. Approximately 100 μg of total protein was used per analysis. Proteins were sized on a NuPAGE 12% Bis-Tris Gel, 1.0 mm×10 wells, proteins transferred to 0.2 μm nitrocellulose membrane for 60 min followed by blocking with 5% t milk in TBS-T for 1 h at ambient temperature with gentle shaking. […]

[8] abbreviates: HBL1 cell line, CellTiter-Glo, unit inferred.

A word on the IC50: it is the midpoint of a concentration-inhibition curve. Turning to `CN(Cc1cnc2nc(N)nc(N)c2n1)c1ccc(C(=O)NC(CC(F)C(=O)O)C(=O)O)cc1` (stereo not shown) [FMTX, 2-(4-(((2,4-diaminopteridin-6-yl)methyl)(methyl)amino)benzamido)-4-fluoropentanedioic acid, reference compound], half-maximal inhibition in the data set with HBL1 cell line (setting [8]) (IC50) was put at 1.1 µM. Moreover, the Dmax in data set [1] was -115%. Further, the DC50 in data set [1] (HBL1 cells expressing DHFR-HiBiT, 24 h, degradation or stabilization potency, average of N = 2-5, read-out: Ave EC50) amounted to 0.28 µM. In addition, in data set [2], the “cellular toxicity in MTX-resistant HBL1 cell line” value was “greatly decreased”.

For `CN(Cc1cnc2nc(N)nc(N)c2n1)c1ccc(C(=O)N[C@@H](CCC(=O)O)C(=O)O)cc1` [MTX, (4-(((2,4-diaminopteridin-6-yl)methyl)(methyl)amino)benzoyl)-L-glutamic acid, reference compound], the IC50 in the data set with HBL1 cell line was 0.0571 µM; in the data set on HBL1 cells (HBL1, 16 h, read-out: IC50 for cellular ATP-depletion), roughly 0.2 µM. Besides, the “effect on ATP levels” value with fibroblasts and in the data set with 293T cells was “ATP-depleting properties” throughout. In addition, the “effect on cellular ATP levels (acute cellular toxicity)” value with HBL1 cells is “significantly depleted ATP levels”. For the same compound, the “cellular toxicity in MTX-resistant HBL1 cell line” value in data set [2] is given as “greatly decreased”.

Compound `CN(Cc1cnc2nc(N)nc(N)c2n1)c1ccc(C(=O)N[C@@H](CCC(=O)NCCCCCCCCNc2cccc3c2C(=O)N(C2CCC(=O)NC2=O)C3=O)C(=O)O)cc1` (stereo partly drawn) [NCGC00685928, N2-(4-(((2,4-diaminopteridin-6-yl)methyl)(methyl)amino)benzoyl)-N5-(8-((2-(2,6-dioxopiperidin-3-yl)-1,3-dioxoisoindolin-4-yl)amino)octyl)-L-glutamine] registered a 50% inhibitory concentration (IC50) with HBL1 cell line (setting [8]) of 23.7 µM. For the same compound, the “effect on TS protein level” value is “no significant change in TS levels” in [3], “low but detectable increases in TS” in data set [4] and “slight increase in TS” in data set [6]. The Dmax in data set [1] was 65%. For the same compound, the “effect on DHFR protein levels” value at DHFR [5] was “robust DHFR depletion”.

In the data set on HBL1 cell line (setting [8]), `Cc1ncsc1-c1ccc(CNC(=O)C2C[C@@H](O)CN2C(=O)C(NC(=O)COCCOCCOCCOCCNC(=O)CC[C@H](NC(=O)c2ccc(N(C)Cc3cnc4nc(N)nc(N)c4n3)cc2)C(=O)O)C(C)(C)C)cc1` (stereo partly drawn) [NCGC00685964, (23S)-23-(4-(((2,4-diaminopteridin-6-yl)methyl)(methyl)amino)benzamido)-3-((4R)-4-hydroxy-2-((4-(4-methylthiazol-5-yl)benzyl)carbamoyl)pyrrolidine-1-carbonyl)-2,2-dimethyl-5,20-dioxo-7,10,13,16-tetraoxa-4,19-diazatetracosan-24-oic acid] registered an IC50 of 21.5 µM. The “effect on DHFR protein levels” value at DHFR [5] is “no alterations in DHFR protein levels”.

In the data set with HBL1 cell line (setting [8]), `Cc1ncsc1-c1ccc(CNC(=O)C2C[C@@H](O)CN2C(=O)C(NC(=O)COCCOCCNC(=O)CC[C@H](NC(=O)c2ccc(N(C)Cc3cnc4nc(N)nc(N)c4n3)cc2)C(=O)O)C(C)(C)C)cc1` (stereo partly drawn) [NCGC00685995, (17S)-17-(4-(((2,4-diaminopteridin-6-yl)methyl)(methyl)amino)benzamido)-3-((4R)-4-hydroxy-2-((4-(4-methylthiazol-5-yl)benzyl)carbamoyl)pyrrolidine-1-carbonyl)-2,2-dimethyl-5,14-dioxo-7,10-dioxa-4,13-diazaoctadecan-18-oic acid] returned an IC50 of 20.2 µM. Further, the “effect on ATP levels” value in the data set with fibroblasts (fibroblasts, CellTiter-Glo) is “not observed”; in the data set with 293T cells (293T cells, CellTiter-Glo) it was “not observed”. Moreover, the “effect on DHFR protein levels” value at DHFR [7] is reported as “MTX-like stabilization of DHFR”; on DHFR [5] it was “no alterations in DHFR protein levels”.

In the data set on HBL1 cell line (setting [8]), `COC(=O)[C@H](CCC(=O)NCCOCCOCCOCCNC(=O)COc1cccc2c1C(=O)N(C1CCC(=O)NC1=O)C2=O)NC(=O)c1ccc(N(C)Cc2cnc3nc(N)nc(N)c3n2)cc1` (stereo partly drawn) [NCGC00842394, Methyl (19S)-19-(4-(((2,4-diaminopteridin-6-yl)methyl)(methyl)amino)benzamido)-1-((2-(2,6-dioxopiperidin-3-yl)-1,3-dioxoisoindolin-4-yl)oxy)-2,16-dioxo-6,9,12-trioxa-3,15-diazaicosan-20-oate] came in with an IC50 of 33.9 µM. Moreover, in data set [1], the Dmax amounted to 27.6%.
